Measured values: ChEMBL document CHEMBL1212745, “Structure of the heme biosynthetic Pseudomonas aeruginosa porphobilinogen synthase in complex with the antibiotic alaremycin” (Antimicrob Agents Chemother, 2010)
Converted amounts (≈) assume the structure as drawn. The source made the active and inactive calls. The calls are words filed in the database; no cut-off is given here.

How the values were obtained:
[1] = target: T1, Delta-aminolevulinic acid dehydratase (Streptomyces avermitilis) (UniProt Q82E74); experiment: Inhibition of Streptomyces avermitilis DSM 46492 porphobilinogen synthase assessed as enzyme activity at 10 mM relative to control; design: scale not given: the % may be the effect or the level left
T1 sequence (whole entry): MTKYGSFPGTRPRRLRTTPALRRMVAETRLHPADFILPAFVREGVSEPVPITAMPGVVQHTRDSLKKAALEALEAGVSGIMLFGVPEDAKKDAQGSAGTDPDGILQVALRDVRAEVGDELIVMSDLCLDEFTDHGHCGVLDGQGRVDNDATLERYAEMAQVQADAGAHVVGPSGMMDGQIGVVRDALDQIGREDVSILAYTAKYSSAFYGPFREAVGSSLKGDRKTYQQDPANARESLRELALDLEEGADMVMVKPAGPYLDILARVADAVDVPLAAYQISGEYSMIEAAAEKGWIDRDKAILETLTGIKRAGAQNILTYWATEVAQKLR

[2] = Inhibition of Methanosarcina barkeri porphobilinogen synthase after 60 mins by spectrophotometry
[3] = test system: Escherichia coli; experiment: Antimicrobial activity against Escherichia coli DH10B up to 24 hrs by microdilution method; format: functional; settings: K-12 DH10B
[4] = Antimicrobial activity against Streptomyces sp. A012304 up to 24 hrs by microdilution method; format: functional; settings: Streptomyces sp. A012304, 24 h
[5] = Inhibition of Pseudomonas aeruginosa PAO1 porphobilinogen synthase after 60 mins by spectrophotometry
[6] = test system: Escherichia coli; experiment: Inhibition of Escherichia coli CSA1 porphobilinogen synthase assessed as enzyme activity at 5 mM relative to control; design: scale not given: the % may be the effect or the level left
[7] = test system: Bacillus megaterium DSM 319; experiment: Inhibition of Bacillus megaterium DSM319 porphobilinogen synthase assessed as enzyme activity at 5 mM relative to control; design: scale not given: the % may be the effect or the level left
[8] = test system: Streptomyces coelicolor; experiment: Antimicrobial activity against Streptomyces coelicolor DMS 40233 up to 24 hrs by microdilution method; format: functional; settings: DMS 40233, 24 h
[9] = test system: Streptomyces sp. A012304; experiment: Inhibition of Streptomyces sp. A012304 porphobilinogen synthase assessed as enzyme activity at 5 mM relative to control; design: scale not given: the % may be the effect or the level left
[10] = test system: Escherichia coli; experiment: Antimicrobial activity against Escherichia coli CSA1 at =< 40 mg/ml up to 24 hrs by microdilution method in presence of heme and absence of 5-aminolaevulinic acid; format: functional, organism-based
[11] = test system: Methanosarcina barkeri; experiment: Activity at Methanosarcina barkeri porphobilinogen synthase
[12] = test system: Streptomyces avermitilis; experiment: Antimicrobial activity against Streptomyces avermitilis DSM 46492 up to 24 hrs by microdilution method; format: functional; settings: DSM 46492, 24 h
[13] = test system: Priestia megaterium; experiment: Antimicrobial activity against Bacillus megaterium DSM319 up to 24 hrs by microdilution method; format: functional; settings: DSM 319, 24 h
[14] = target: T1, Delta-aminolevulinic acid dehydratase (Streptomyces avermitilis); experiment: Inhibition of Streptomyces avermitilis DSM 46492 porphobilinogen synthase assessed as enzyme activity at 5 mM relative to control; design: scale not given: the % may be the effect or the level left
[15] = test system: Bacillus subtilis; experiment: Antimicrobial activity against Bacillus subtilis JH642 up to 24 hrs by microdilution method; format: functional; settings: JH642, 24 h
[16] = test system: Methanosarcina barkeri; experiment: Ratio of Kcat to Km for Methanosarcina barkeri porphobilinogen synthase
[17] = test system: Escherichia coli str. K-12 substr. DH10B; experiment: Inhibition of Escherichia coli porphobilinogen synthase assessed as enzyme activity at 10 mM relative to control; design: scale not given: the % may be the effect or the level left
[18] = test system: Pseudomonas aeruginosa; experiment: Antimicrobial activity against Pseudomonas aeruginosa PAO1 up to 24 hrs by microdilution method; format: functional; settings: PAO1, 24 h
[19] = test system: Escherichia coli str. K-12 substr. DH10B; experiment: Inhibition of Escherichia coli porphobilinogen synthase assessed as enzyme activity at 5 mM relative to control; design: scale not given: the % may be the effect or the level left
[20] = Inhibition of Pseudomonas aeruginosa PAO1 porphobilinogen synthase by Lineweaver-Burke plot analysis
[21] = test system: Pseudomonas aeruginosa PAO1; experiment: Ratio of Kcat to Km for Pseudomonas aeruginosa PAO1 porphobilinogen synthase
[22] = target: T2, Delta-aminolevulinic acid dehydratase (Bacillus subtilis) (UniProt P30950); experiment: Inhibition of Bacillus subtilis JH642 porphobilinogen synthase assessed as enzyme activity at 10 mM relative to control; design: scale not given: the % may be the effect or the level left
T2 sequence (whole entry): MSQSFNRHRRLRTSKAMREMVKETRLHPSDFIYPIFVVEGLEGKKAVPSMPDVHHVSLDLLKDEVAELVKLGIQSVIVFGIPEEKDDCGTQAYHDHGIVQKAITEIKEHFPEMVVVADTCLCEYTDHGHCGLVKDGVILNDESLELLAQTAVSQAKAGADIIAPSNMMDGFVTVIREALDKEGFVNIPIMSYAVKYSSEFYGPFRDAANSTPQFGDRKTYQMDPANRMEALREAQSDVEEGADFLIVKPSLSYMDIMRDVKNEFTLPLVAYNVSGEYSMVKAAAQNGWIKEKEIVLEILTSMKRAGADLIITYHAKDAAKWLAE

[23] = test system: Escherichia coli; experiment: Antimicrobial activity against Escherichia coli CSA1 up to 24 hrs by microdilution method; format: functional; settings: CSA1, 24 h
[24] = test system: Escherichia coli; experiment: Antimicrobial activity against Escherichia coli CSA1 at =< 40 mg/ml up to 24 hrs by microdilution method in presence of 5-aminolaevulinic acid and heme; format: functional, organism-based
[25] = target: T3, Delta-aminolevulinic acid dehydratase (Streptomyces coelicolor) (UniProt P54919); experiment: Inhibition of Streptomyces coelicolor DMS 40233 porphobilinogen synthase assessed as enzyme activity at 10 mM relative to control; design: scale not given: the % may be the effect or the level left
T3 sequence (whole entry): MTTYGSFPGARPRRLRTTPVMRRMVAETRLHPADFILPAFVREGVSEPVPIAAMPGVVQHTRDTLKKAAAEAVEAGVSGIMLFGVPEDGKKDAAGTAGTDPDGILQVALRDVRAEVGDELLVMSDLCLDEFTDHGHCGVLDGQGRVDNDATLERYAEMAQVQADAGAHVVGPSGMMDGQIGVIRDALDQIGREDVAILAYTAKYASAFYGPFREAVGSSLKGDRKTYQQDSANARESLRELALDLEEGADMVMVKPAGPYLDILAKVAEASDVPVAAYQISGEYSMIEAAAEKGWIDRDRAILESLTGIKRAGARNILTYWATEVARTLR

[26] = target: T2, Delta-aminolevulinic acid dehydratase (Bacillus subtilis); experiment: Inhibition of Bacillus subtilis JH642 porphobilinogen synthase assessed as enzyme activity at 5 mM relative to control; design: scale not given: the % may be the effect or the level left
[27] = test system: Escherichia coli; experiment: Antimicrobial activity against Escherichia coli CSA1 at =< 40 mg/ml up to 24 hrs by microdilution method in absence of 5-aminolaevulinic acid; format: functional, organism-based
[28] = target: T3, Delta-aminolevulinic acid dehydratase (Streptomyces coelicolor); experiment: Inhibition of Streptomyces coelicolor DMS 40233 porphobilinogen synthase assessed as enzyme activity at 5 mM relative to control; design: scale not given: the % may be the effect or the level left
[29] = test system: Bacillus megaterium DSM 319; experiment: Inhibition of Bacillus megaterium DSM319 porphobilinogen synthase assessed as enzyme activity at 10 mM relative to control; design: scale not given: the % may be the effect or the level left
[30] = test system: Pseudomonas aeruginosa PAO1; experiment: Activity at Pseudomonas aeruginosa PAO1 porphobilinogen synthase
[31] = Inhibition of Methanosarcina barkeri porphobilinogen synthase by Lineweaver-Burke plot analysis
[32] = test system: Streptomyces sp. A012304; experiment: Inhibition of Streptomyces sp. A012304 porphobilinogen synthase assessed as enzyme activity at 10 mM relative to control; design: scale not given: the % may be the effect or the level left
[33] = test system: Escherichia coli; experiment: Antimicrobial activity against Escherichia coli CSA1 at =< 40 mg/ml up to 24 hrs by microdilution method in presence of 5-aminolaevulinic acid; format: functional, organism-based
[34] = test system: Pseudomonas aeruginosa PAO1; experiment: Inhibition of Pseudomonas aeruginosa PAO1 porphobilinogen synthase assessed as enzyme activity at 5 mM relative to control; design: scale not given: the % may be the effect or the level left
[35] = test system: Pseudomonas aeruginosa PAO1; experiment: Inhibition of Pseudomonas aeruginosa PAO1 porphobilinogen synthase assessed as enzyme activity at 10 mM relative to control; design: scale not given: the % may be the effect or the level left
[36] = test system: Escherichia coli; experiment: Inhibition of Escherichia coli CSA1 porphobilinogen synthase assessed as enzyme activity at 10 mM relative to control; design: scale not given: the % may be the effect or the level left

Question: For C=C(NC(C)=O)C(=O)CCC(=O)O [ALAREMYCIN], which Activity [1] is on record?
Answer: Its Activity is under 1%.

Question: What about the IC50 [2] of the same compound?
Answer: Its IC50 is 2200 µM.

Question: What about the MIC [3] of the same compound?
Answer: The MIC was 4 mM (≈ 741 µg/mL).

Question: What about the MIC [4] of the same compound?
Answer: The MIC was over 20 mM.

Question: What about the IC50 [5] of the same compound?
Answer: Its IC50 is 2100 µM.

Question: What about the Activity [6] of the same compound?
Answer: The Activity was 36%.

Question: What about the Activity [7] of the same compound?
Answer: The Activity was 3%.

Question: And the MIC [8]?
Answer: Its MIC is 8 mM (≈ 1480 µg/mL).

Question: And the Activity [9]?
Answer: The Activity was 90%.

Question: And the Activity [10]?
Answer: Its Activity is “inactive”.

Question: What about the Km [11] of the same compound?
Answer: The Km was 0.07 mM.

Question: What about the kcat [11] of the same compound?
Answer: The kcat was 0.012 s⁻¹.

Question: And the MIC [12]?
Answer: The MIC was 8 mM (≈ 1480 µg/mL).

Question: And the MIC [13]?
Answer: Its MIC is 4 mM (≈ 741 µg/mL).

Question: What about the Activity [14] of the same compound?
Answer: The Activity was 68%.

Question: And the MIC [15]?
Answer: Its MIC is 14 mM (≈ 2590 µg/mL).

Question: And the kcat/Km [16]?
Answer: Its kcat/Km is 170 M⁻¹ s⁻¹.

Question: And the Activity [17]?
Answer: Its Activity is under 1%.

Question: What about the MIC [18] of the same compound?
Answer: Its MIC is 12 mM (≈ 2220 µg/mL).

Question: What about the Activity [19] of the same compound?
Answer: Its Activity is 30%.

Question: And the Ki [20]?
Answer: Its Ki is 1330 µM.

Question: And the kcat/Km [21]?
Answer: The kcat/Km was 50300 M⁻¹ s⁻¹.

Question: And the Activity [22]?
Answer: The Activity was 30%.

Question: And the MIC [23]?
Answer: The MIC was 10 mM (≈ 1850 µg/mL).

Question: What about the Activity [24] of the same compound?
Answer: Its Activity is “inactive”.

Question: What about the Activity [25] of the same compound?
Answer: Its Activity is 22%.

Question: What about the Activity [26] of the same compound?
Answer: Its Activity is 61%.

Question: And the Activity [27]?
Answer: The Activity was “Active”.

Question: What about the Activity [28] of the same compound?
Answer: The Activity was 77%.

Question: And the Activity [29]?
Answer: Its Activity is under 1%.

Question: What about the Km [30] of the same compound?
Answer: Its Km is 0.32 mM.

Question: What about the kcat [30] of the same compound?
Answer: Its kcat is 16.1 s⁻¹.

Question: And the Ki [31]?
Answer: The Ki was 1510 µM.

Question: And the Activity [32]?
Answer: Its Activity is 79%.

Question: What about the Activity [33] of the same compound?
Answer: The Activity was “Active”.

Question: What about the Activity [34] of the same compound?
Answer: The Activity was 92%.

Question: What about the Activity [35] of the same compound?
Answer: Its Activity is 25%.

Question: And the Activity [36]?
Answer: The Activity was under 1%.
